Results reported in US20240261279A1, “METHOD FOR TREATING LUNG CANCER” (priority 2021, published 2024).

Test system: nuclear protein kinase C-δ
Experiment: confocal-based high-content screening measuring the quantity of nuclear protein kinase C-δ in GR10 cells
Assay type: cell-based
Details: 24 hours treatment, fluorescence intensity (FIG. 3)
From the text: Please refer to FIG. 1. […] To investigate the growth-inhibiting effect of the nuclear protein kinase C-δ inhibitor of the present disclosure on the non-small-cell lung cancer cells resistant to the epidermal growth factor receptor-tyrosine kinase inhibitor, the present experimental example utilizes the screening system shown in FIG. 1 to measure whether the nuclear protein kinase C-δ inhibitor of the present disclosure can inhibit the production of nuclear protein kinase C-δ in the cancer cells.
In the present experimental example, gefitinib-resistant non-small-cell lung cancer cells (gefitinib-resistant 10 cells, hereinafter “GR10 cells”) are used as the cell model. In Example 1 to Example 4, GR10 cells are respectively treated with nintedanib esylate (hereinafter “Nin”), ponatinib (hereinafter “Pon”), regorafenib (hereinafter “Reg”) or cobimetinib (hereinafter “Cob”) for 24 hours, and the quantity of nuclear protein kinase C-δ within the GR10 cells is determined by confocal-based high-content image analysis. On the other hand, the present experimental example further includes Comparative Example 1 and Comparative Example 2. […]
Please refer to FIG. 2A to FIG. 2F and FIG. 3. […] FIG. 3 is a comparative diagram of fluorescence intensity of the GR10 cells after treatment of Example 1 to Example 4, Comparative Example 1 and Comparative Example 2. […]

Cc1ccc(C(=O)Nc2ccc(CN3CCN(C)CC3)c(C(F)(F)F)c2)cc1C#Cc1cnc2cccnn12 [Pon, ponatinib]
concentration at which a great ability to inhibit nuclear protein kinase C-δ is performed: greater than 0.1 μM
